We go through five compounds from ChEMBL document CHEMBL1124074, “Bile acids with a cyclopropyl-containing side chain. 3. Separation, identification, and properties of all four stereoisomers of 3 alpha,7 beta-dihydroxy-22,23-methylene-5 beta-cholan-24-oic acid” (J Med Chem, 1988).

Structures are written as SMILES.

A short description of series [1]: Critical micellar concentration was measured in water by the dye solubilization method. To be noted: buffer. The format is ADME.
Series [2] can be described thus: pKa value was evaluated. The class given is physicochemical.

For `C[C@H](CCC(=O)O)[C@H]1CC[C@H]2[C@@H]3[C@@H](O)C[C@@H]4C[C@H](O)CC[C@]4(C)[C@H]3CC[C@]12C` [URSODIOL], the CMC in series [1] was 19 mM. In series [1], `CC(C1CC[C@H]2[C@@H]3[C@@H](O)CC4C[C@H](O)CCC4(C)[C@H]3CCC12C)[C@H]1C[C@H]1C(=O)O` (some centres undefined) had a CMC of 20 mM. Further, the pKa – broadly, the negative logarithm of the acid dissociation constant – in series [2] worked out at 5.05. In the case of `C[C@H]([C@@H]1C[C@@H]1C(=O)O)[C@H]1CC[C@H]2[C@@H]3[C@@H](O)CC4C[C@H](O)CC[C@]4(C)[C@H]3CC[C@]12C` (some centres undefined), the CMC in series [1] amounted to 14 mM. The compound further registered a pKa in series [2] of 5.02.

Consider `C[C@H]([C@H]1C[C@H]1C(=O)O)[C@H]1CC[C@H]2[C@@H]3[C@@H](O)CC4C[C@H](O)CC[C@]4(C)[C@H]3CC[C@]12C` (some centres undefined), for which, in series [1], the CMC came to 10 mM. In series [2], this compound displayed a pKa of 5.04. In series [1], `CC(C1CC[C@H]2[C@@H]3[C@@H](O)CC4C[C@H](O)CCC4(C)[C@H]3CCC12C)[C@@H]1C[C@@H]1C(=O)O` (some centres undefined) displayed a CMC of 25 mM. Besides, the pKa in series [2] stood at 5.04.
